Reference: ChEMBL document CHEMBL1147339, “Combination effects of antifungal nagilactones against Candida albicans and two other fungi with phenylpropanoids” (1993)
≈ marks a conversion by molar mass, not a printed value. Calls of active or inactive are those of the source. The calls are words filed in the database; no cut-off is given here.

How the values were obtained:
[1] = tested on: Saccharomyces cerevisiae; assay: Antifungal activity against Saccharomyces cerevisiae ATCC 7754 after 2 days by broth dilution method; format: functional; details: ATCC 7754, 48 h
[2] = tested on: Malassezia furfur; assay: Antifungal activity against Pityrosporum ovale ATCC 14521 after 3 days by broth dilution method; format: functional; details: ATCC 14521, 72 h
[3] = tested on: Candida albicans; assay: Antifungal activity against Candida albicans ATCC 18804 after 2 days by broth dilution method; format: functional; details: ATCC 18804, 48 h
[4] = tested on: Cutibacterium acnes; assay: Antimicrobial activity against Propionibacterium acnes ATCC 11827 up to 800 ug/mL after 2 days by broth dilution method; format: functional, organism-based
[5] = tested on: Corynebacterium ammoniagenes; assay: Antimicrobial activity against Brevibacterium ammoniagenes ATCC 6872 up to 800 ug/mL after 2 days by broth dilution method; format: functional, organism-based
[6] = tested on: Pseudomonas aeruginosa; assay: Antimicrobial activity against Pseudomonas aeruginosa ATCC 10145 up to 800 ug/mL after 2 days by broth dilution method; format: functional, organism-based
[7] = tested on: Escherichia coli; assay: Antimicrobial activity against Escherichia coli ATCC 9637 up to 800 ug/mL after 2 days by broth dilution method; format: functional, organism-based
[8] = tested on: Staphylococcus aureus; assay: Antimicrobial activity against Staphylococcus aureus ATCC 12598 up to 800 ug/mL after 2 days by broth dilution method; format: functional, organism-based
[9] = tested on: Penicillium chrysogenum; assay: Antimicrobial activity against Penicillium chrysogenum ATCC 10106 up to 800 ug/mL after 5 days by broth dilution method; format: functional, organism-based
[10] = tested on: Streptococcus mutans; assay: Antimicrobial activity against Streptococcus mutans ATCC 25175 up to 800 ug/mL after 2 days by broth dilution method; format: functional, organism-based
[11] = tested on: Saccharomyces cerevisiae; assay: Antifungal activity against Saccharomyces cerevisiae ATCC 7754 at 800 ug/mL after 2 days by broth dilution method; format: functional; details: ATCC 7754, 48 h
[12] = tested on: Klebsiella aerogenes; assay: Antimicrobial activity against Enterobacter aerogenes ATCC 13048 up to 800 ug/mL after 2 days by broth dilution method; format: functional, organism-based
[13] = tested on: Saccharomyces cerevisiae; assay: Antifungal activity against Saccharomyces cerevisiae ATCC 7754 at 1600 ug/mL after 2 days by broth dilution method; format: functional, organism-based
[14] = tested on: Malassezia furfur; assay: Antifungal activity against Pityrosporum ovale ATCC 14521 at 800 ug/mL after 3 days by broth dilution method; format: functional, organism-based
[15] = tested on: Candida albicans; assay: Antifungal activity against Candida albicans ATCC 18804 at 800 ug/mL after 2 days by broth dilution method; format: functional, organism-based
[16] = tested on: Bacillus subtilis; assay: Antimicrobial activity against Bacillus subtilis ATCC 9372 up to 800 ug/mL after 2 days by broth dilution method; format: functional; details: ATCC 9372, 48 h

C/C=C/c1ccccc1
MIC [1]: 400 µg/mL (≈ 3380 µM)
MIC [2]: > 800 µg/mL
MIC [3]: 400 µg/mL (≈ 3380 µM)

CC(C)[C@H]1OC(=O)C=C2C1=C[C@H]1OC(=O)[C@@]3(C)C[C@H](O)C[C@@]2(C)[C@@H]13
MIC [1]: 800 µg/mL (≈ 2410 µM)
Activity [4]: inactive
Activity [5]: inactive
Activity [6]: inactive
Activity [7]: inactive
Activity [8]: inactive
Activity [9]: inactive
Activity [10]: inactive
MIC [11]: 800 µg/mL (≈ 2410 µM)
Activity [12]: inactive

COc1ccc(/C=C/C(=O)O)cc1 [4-METHOXYCINNAMIC ACID]
MIC [1]: 100 µg/mL (≈ 561 µM)
MIC [2]: > 800 µg/mL
MIC [3]: 200 µg/mL (≈ 1120 µM)

C=CCc1ccccc1 [ALLYLBENZENE]
MIC [1]: 400 µg/mL (≈ 3380 µM)
MIC [2]: > 800 µg/mL
MIC [3]: 400 µg/mL (≈ 3380 µM)

C/C=C/c1ccc(OC)cc1 [ANETHOLE]
MIC [1]: 200 µg/mL (≈ 1350 µM)
MIC [2]: 200 µg/mL (≈ 1350 µM)
MIC [3]: 200 µg/mL (≈ 1350 µM)

COc1ccc(O)c(C(C)(C)C)c1.COc1ccc(O)cc1C(C)(C)C [BUTYLATED HYDROXYANISOLE]
MIC [1]: 200 µg/mL
MIC [2]: 200 µg/mL

C=CCc1ccc(O)c(OC)c1 [EUGENOL]
MIC [1]: 800 µg/mL (≈ 4870 µM)
MIC [2]: 200 µg/mL (≈ 1220 µM)
MIC [3]: 800 µg/mL (≈ 4870 µM)

C/C=C\c1ccc(O)c(OC)c1 [ISOEUGENOL]
MIC [1]: 400 µg/mL (≈ 2440 µM)
MIC [2]: 200 µg/mL (≈ 1220 µM)
MIC [3]: 400 µg/mL (≈ 2440 µM)

C/C=C/c1ccc2c(c1)OCO2 [ISOSAFROLE]
MIC [1]: 200 µg/mL (≈ 1230 µM)
MIC [2]: 100 µg/mL (≈ 617 µM)
MIC [3]: 100 µg/mL (≈ 617 µM)

C=CCc1ccc(OC)c(OC)c1 [METHYLEUGENOL]
MIC [1]: 800 µg/mL (≈ 4490 µM)
MIC [2]: 200 µg/mL (≈ 1120 µM)
MIC [3]: 800 µg/mL (≈ 4490 µM)

C/C=C/c1ccc(OC)c(OC)c1 [METHYLISOEUGENOL]
MIC [1]: 400 µg/mL (≈ 2240 µM)
MIC [2]: 200 µg/mL (≈ 1120 µM)
MIC [3]: 400 µg/mL (≈ 2240 µM)

CC(C)c1oc(=O)cc2c1[C@@H](O)[C@H]1OC(=O)[C@@]3(C)[C@@H](O)[C@H]4O[C@H]4[C@@]2(C)[C@@H]13 [NAGILACTONE C]
MIC [1]: > 1600 µg/mL
Activity [4]: inactive
Activity [13]: inactive
Activity [5]: inactive
Activity [6]: inactive
MIC [2]: > 1600 µg/mL
Activity [14]: inactive
Activity [7]: inactive
Activity [15]: inactive
Activity [8]: inactive
Activity [9]: inactive
Activity [10]: inactive
Activity [12]: inactive

CC(C)[C@H]1OC(=O)C=C2C13O[C@@H]3[C@H]1OC(=O)[C@@]3(C)[C@@H](O)CC[C@@]2(C)[C@@H]13 (some centres not stated) [NAGILACTONE E]
MIC [1]: 100 µg/mL (≈ 287 µM)
Activity [4]: inactive
Activity [5]: inactive
Activity [6]: inactive
MIC [16]: 50 µg/mL (≈ 144 µM)
MIC [2]: 50 µg/mL (≈ 144 µM)
Activity [7]: inactive
Activity [8]: inactive
Activity [9]: inactive
Activity [10]: inactive
Activity [12]: inactive
MIC [3]: 800 µg/mL (≈ 2300 µM)

O=C(O)c1ccc(O)cc1 [PARABEN]
MIC [1]: 200 µg/mL (≈ 1450 µM)
MIC [2]: 100 µg/mL (≈ 724 µM)

C=CCc1ccc2c(c1)OCO2 [SAFROLE]
MIC [1]: 200 µg/mL (≈ 1230 µM)
MIC [2]: 200 µg/mL (≈ 1230 µM)
MIC [3]: 200 µg/mL (≈ 1230 µM)

C/C=C/c1cc(OC)c(OC)cc1OC [TRANS-ASARONE]
MIC [1]: 800 µg/mL (≈ 3840 µM)
MIC [2]: 200 µg/mL (≈ 960 µM)
MIC [3]: 800 µg/mL (≈ 3840 µM)
